# In patent publication US8716355B2, “Hydroxylated tolans and related compounds in the treatment of a cancer” (Kent State University, priority 2007, dated 2014):
# Tests used:
# HCT116 = assay: MTT cytotoxicity, HCT116 colon; type: cell-based; settings: Homo sapiens, HCT-116, 72 h; 3 Days; read-out: CD50 (μM) HCT116
# Protocol: (§1) Cell killing was evaluated using the colorimetric MTT assay. The assay measures the formation of a colored product from a chromogenic precursor, the tetrazole 3-[4,5-dimethylthiazol-2-yl]-2,5 diphenyltetrazolium bromide (MTT). The yellow MTT is reduced to purple formazan in the mitochondria of living cells. A solubilization solution (typically dimethyl sulfoxide or sodium dodecyl sulfate in dilute hydrochloric acid) is added to dissolve the insoluble purple formazan product into a colored solution. The absorbance of this colored solution is quantified by measuring at a certain wavelength (usually between 500 and 600 nm) by a spectrophotometer. The amount of purple formazan product generated is proportional to the number of viable cells (Mosmann, T., 1983, J. Immunol. Meth. 65:55-63; Wilson, A. P., Cytotoxicity and Viability Assays. In: Animal Cell Culture: A Practical Approach, 3rd ed. (Masters, J R W, ed.) Oxford University Press: Oxford, Vol. 1, pp. 175-219. 2000). This MTT assay is used widely to assess the cytotoxicity and selectivity of compounds such as anti-cancer drugs. The assay is suitable for rapid toxicity characterization of a test agent such as a drug formulation. […] A lower CD50 indicates a greater cytotoxic activity (as a lower amount of the agent is needed to achieve a fixed level of cytotoxicity). […]
# A375 = assay: MTT cytotoxicity, A375 melanoma; type: cell-based; settings: Homo sapiens, A-375, 72 h; 3 Days; read-out: CD50 (μM) A375
# Protocol: as §1
# DU145 cells = assay: Flow cytometric cell cycle analysis of DU145 cells; type: cell-based, human
# Protocol: Initially, the mechanism(s) responsible for the antitumor activity of KST-201 were tested in the DU145 cell line. […] The cell cycle distribution of sham-treated (FIG. 4, upper left) DU145 cells or DU145 cells treated with KST-201 at 14 μM (FIG. 4, upper right), 28 μM (FIG. 4, lower left) or 56 μM (FIG. 4, lower right) were determined by flow cytometry.
# ovine COX-1 = biological target: T1, ovine COX-1 (Ovis aries, UniProt P05979); assay: COX Inhibitor Screening Assay, COX1; type: biochemical
# T1 construct: purchased Cayman Chemical 560131
# T1 sequence (P05979 25-600): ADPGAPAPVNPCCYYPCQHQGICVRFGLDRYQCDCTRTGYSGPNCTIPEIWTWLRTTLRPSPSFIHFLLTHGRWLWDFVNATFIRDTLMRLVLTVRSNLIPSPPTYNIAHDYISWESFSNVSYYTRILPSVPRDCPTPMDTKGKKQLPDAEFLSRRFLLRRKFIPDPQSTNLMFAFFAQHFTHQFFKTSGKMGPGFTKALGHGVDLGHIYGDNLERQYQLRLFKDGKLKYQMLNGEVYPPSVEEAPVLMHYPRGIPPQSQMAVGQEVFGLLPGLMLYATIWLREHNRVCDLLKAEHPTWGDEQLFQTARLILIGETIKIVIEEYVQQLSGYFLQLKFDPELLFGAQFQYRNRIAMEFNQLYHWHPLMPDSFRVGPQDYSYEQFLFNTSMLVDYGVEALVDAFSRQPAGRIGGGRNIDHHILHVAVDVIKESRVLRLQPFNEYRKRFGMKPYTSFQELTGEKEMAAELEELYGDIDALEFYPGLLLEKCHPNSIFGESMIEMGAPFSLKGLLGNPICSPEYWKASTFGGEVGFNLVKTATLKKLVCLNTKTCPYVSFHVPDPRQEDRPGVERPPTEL
# Protocol: The indicated concentration of these agents were tested in the presence of COX1. COX activity was quantified by measuring the amount of final product PGF2α which competed with acetylcholinesterase (AChE)-linked PGs for binding to its antibody immobilized to the surface of microplate wells. Color was developed by adding an AChE substrate and was inversely related to the amount of PGF2α±SD of triplicate determinations.
# The prostanoid product can be quantified via enzyme immunoassay (EIA) using a broadly specific antibody that binds to all the major prostaglandin compounds. COX assays from Cayman Chemical, Ann Arbor, Mich., are more accurate and reliable than assays based on peroxidase inhibition. The Cayman COX Inhibitor Screening Assay includes both ovine COX-1 and human recombinant COX-2 enzymes in order to screen isozyme-specific inhibitors. This assay is an excellent tool which can be used for general inhibitor screening.
# COX was assayed by measuring production of PGF2, generated by stannous chloride (SnCl2) in the presence of PGH2 using a commercial kit from Cayman Chemical, (Ovine COX Inhibitor Screening Assay, Catalog #560131). […]
# A 96-well plate coated with mouse anti-rabbit IgG was then used and various components were added—assay standards, nonspecific binding controls, maximum binding controls, and the inhibitor dilutions—along with the tracer and antiserum. The plate was incubated at room temperature for 18 hours, washed five times with wash buffer, developed with Ellman's Reagent and the colored reaction product was read on an automatic microplate reader at 410 nm. The IC50 for the respective COX enzyme was graphically determined from a three-point curve. […]
# The intensity of color was inversely proportional to the amount of free prostaglandins quantitatively representing the COX enzymatic activity, under the influence of the test compounds.
# As noted, COX activity was quantified by measuring the amount of final product PGF2-α which competed with AChE-linked PGs for binding to an antibody immobilized to microplates. […]
# human recombinant COX-2 = biological target: T2, human recombinant COX-2 (Homo sapiens, UniProt P35354); assay: COX Inhibitor Screening Assay, COX2; type: biochemical; settings: doses of 10 to 200 μM tested
# T2 construct: purchased Cayman Chemical 560131
# T2 sequence (P35354 18-604): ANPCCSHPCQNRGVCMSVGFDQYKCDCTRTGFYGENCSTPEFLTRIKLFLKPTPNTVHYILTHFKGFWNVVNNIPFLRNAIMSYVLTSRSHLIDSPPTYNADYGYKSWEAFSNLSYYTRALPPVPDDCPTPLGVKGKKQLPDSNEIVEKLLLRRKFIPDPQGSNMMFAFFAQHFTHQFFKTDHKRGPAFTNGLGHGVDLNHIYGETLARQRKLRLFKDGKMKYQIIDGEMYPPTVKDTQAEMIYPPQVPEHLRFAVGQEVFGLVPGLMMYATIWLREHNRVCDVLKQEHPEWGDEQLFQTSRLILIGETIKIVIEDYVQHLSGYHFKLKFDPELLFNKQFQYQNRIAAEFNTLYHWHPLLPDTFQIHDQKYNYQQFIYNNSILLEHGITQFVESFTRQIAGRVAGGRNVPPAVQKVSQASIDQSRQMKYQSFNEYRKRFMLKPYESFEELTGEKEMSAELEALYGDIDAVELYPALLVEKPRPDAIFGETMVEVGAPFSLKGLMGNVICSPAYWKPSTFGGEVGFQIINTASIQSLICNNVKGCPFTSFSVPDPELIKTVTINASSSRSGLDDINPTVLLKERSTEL
# Excerpt: The Cayman COX Inhibitor Screening Assay includes both ovine COX-1 and human recombinant COX-2 enzymes in order to screen isozyme-specific inhibitors.
# breast cancer = assay: Breast cancer prevention, skin patch (Example VIII C); type: in vivo, human; settings: transdermal patch 10 mg to 100 mg daily, one-year study
# Protocol: This study investigates whether KST-201, KST-213, KST-301 and KST-401 administered transdermally each day through a skin patch aid in preventing breast cancer or metastatic cancer following cancer therapy. Patches are prepared with a lipophilic carrier which is readily absorbed through the skin (glycerol cold cream containing glycerin and peanut oil). The HT compound is mixed with the lipophilic cream such that each patch comprises 10 mg to 100 mg of active compound. The patch is applied to the skin each day, and rapid absorption occurs. After two hours, the patch is removed.
Compound,IC50 (HCT116),IC50 (A375),"Phase of Cell Cycle S (DU145 cells; 14 μM, untreated 40)","Phase of Cell Cycle G0/G1 (DU145 cells; 14 μM, untreated 46)",Phase of Cell Cycle G0/G1 (DU145 cells; 28 μM),Phase of Cell Cycle G2/M (DU145 cells; 28 μM),Phase of Cell Cycle S (DU145 cells; 28 μM),Phase of Cell Cycle G0/G1 (DU145 cells; 56 μM),Phase of Cell Cycle G2/M (DU145 cells; 56 μM),Phase of Cell Cycle S (DU145 cells; 56 μM),"Effect on cell cycle (in words) (DU145 cells; 14, 28 and 56 μM)",Inhibition of COX1 activity (ovine COX-1; doses of 10 to 200 μM tested),Inhibition of COX2 activity (human recombinant COX-2),Breast cancer or metastatic cancer in high-risk group (breast cancer),COX1 enzymatic activity (ovine COX-1; high end of 10 μM to 200 μM),"COX1 enzymatic activity, % of initial activity (ovine COX-1; low end of 10 μM to 200 μM)"
"Oc1ccc(C#Cc2ccc(O)cc2)cc1 [KST-201, 4,4′-dihydroxytolan]",129 ± 4 µM,4.6 ± 0.1 µM,28,72,77,3,20,78,4,18,G0/G1-S cell cycle arrest,about 50%,about 50%,does not show any evidence of breast cancer or other metastatic cancer,,
"Oc1ccc(/C=C/c2cc(O)cc(O)c2)cc1 [Resveratrol, 3,5,4′-trihydroxy-trans-stilbene, reference compound]",94 ± 0.1 µM,19 ± 0.2 µM,,,,,,,,,,,,,complete inhibition,5%
